# ChEMBL document CHEMBL1201862, “PubChem BioAssay data set” (2004)
#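 The compound was tested at five concentrations on cells cultured in 96-well plates, with a 48-hour exposure period. At the GI50, growth is halved.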 Calls of active or inactive are those of the source. No stated cut-off is given here; in the data, active = GI50 up to about 1.1 µM and inactive = higher.
# Assays:
# Assay in all cases: growth of human tumour cells (NCI), 48 h
# ACHN = test system: ACHN
# OVCAR-3 = test system: OVCAR-3
# HOP-62 = test system: HOP-62
# SK-MEL-2 = test system: SK-MEL-2
# OVCAR-5 = test system: OVCAR-5
# NCI-H23 = test system: NCI-H23
# HOP-18 = test system: HOP-18
# OVCAR-4 = test system: OVCAR-4
# OVCAR-8 = test system: OVCAR-8
# HT-29 = test system: HT-29
# NCI-H460 = test system: NCI-H460
# K562 = test system: K562
# A549 = test system: A549
# EKVX = test system: EKVX
# UACC-62 = test system: UACC-62
# HCC 2998 = test system: HCC 2998
# NCI-H522 = test system: NCI-H522
# RPMI-8226 = test system: RPMI-8226
# KM12 = test system: KM12
# UO-31 = test system: UO-31
# SR = test system: SR
# MOLT-4 = test system: MOLT-4
# SK-MEL-28 = test system: SK-MEL-28
# IGROV-1 = test system: IGROV-1
# KM-20L2 = test system: KM-20L2
# LXFL 529 = test system: LXFL 529
# TK-10 = test system: TK-10
# UACC-257 = test system: UACC-257
# NCI-H226 = test system: NCI-H226
# Malme-3M = test system: Malme-3M
# LOX IMVI = test system: LOX IMVI
# SN12C = test system: SN12C
# SF-539 = test system: SF-539
# HL-60 = test system: HL-60
# 786-0 = test system: 786-0
# M19-MEL = test system: M19-MEL
# DMS-114 = test system: DMS-114
# SW-620 = test system: SW-620
# U-251 = test system: U-251
# SNB-78 = test system: SNB-78
# SNB-19 = test system: SNB-19
# HCT-116 = test system: HCT-116
# XF498 = test system: XF498
# SK-OV-3 = test system: SK-OV-3
# RXF 393 = test system: RXF 393
# CCRF-CEM = test system: CCRF-CEM
# DLD-1 = test system: DLD-1
# M14 = test system: M14
# A498 = test system: A498
# HCT-15 = test system: HCT-15
# SF-268 = test system: SF-268
smiles,measurement,setting,value
S=C(Nc1ccccc1)N1N=C2c3ccccc3CC[C@H]2[C@@H]1c1ccccc1,GI50,ACHN,6.78 µM (inactive)
same,GI50,OVCAR-3,1.88 µM (inactive)
same,GI50,HOP-62,4.22 µM (inactive)
same,GI50,SK-MEL-2,2.35 µM (inactive)
same,GI50,OVCAR-5,> 100 µM (inactive)
same,GI50,NCI-H23,5.27 µM (inactive)
same,GI50,HOP-18,6.21 µM (inactive)
same,GI50,OVCAR-4,47.1 µM (inactive)
same,GI50,OVCAR-8,10.3 µM (inactive)
same,GI50,HT-29,2.81 µM (inactive)
same,GI50,NCI-H460,3.64 µM (inactive)
same,GI50,K562,0.607 µM (active)
same,GI50,A549,4.66 µM (inactive)
same,GI50,EKVX,> 100 µM (inactive)
same,GI50,UACC-62,2.75 µM (inactive)
same,GI50,HCC 2998,> 100 µM (inactive)
same,GI50,NCI-H522,0.581 µM (active)
same,GI50,RPMI-8226,4.34 µM (inactive)
same,GI50,KM12,2.79 µM (inactive)
same,GI50,UO-31,13.2 µM (inactive)
same,GI50,SR,0.248 µM (active)
same,GI50,MOLT-4,4 µM (inactive)
same,GI50,SK-MEL-28,8.09 µM (inactive)
same,GI50,IGROV-1,4.54 µM (inactive)
same,GI50,KM-20L2,3.21 µM (inactive)
same,GI50,LXFL 529,5.52 µM (inactive)
same,GI50,TK-10,> 100 µM (inactive)
same,GI50,UACC-257,3.58 µM (inactive)
same,GI50,NCI-H226,4.23 µM (inactive)
same,GI50,Malme-3M,> 100 µM (inactive)
same,GI50,LOX IMVI,7.35 µM (inactive)
same,GI50,SN12C,37.2 µM (inactive)
same,GI50,SF-539,5.87 µM (inactive)
same,GI50,HL-60,0.855 µM (active)
same,GI50,786-0,4.31 µM (inactive)
same,GI50,M19-MEL,1.83 µM (inactive)
same,GI50,DMS-114,2.29 µM (inactive)
same,GI50,SW-620,2.4 µM (inactive)
same,GI50,U-251,7.59 µM (inactive)
same,GI50,SNB-78,0.708 µM (active)
same,GI50,SNB-19,9.18 µM (inactive)
same,GI50,HCT-116,> 100 µM (inactive)
same,GI50,XF498,> 100 µM (inactive)
same,GI50,SK-OV-3,2.22 µM (inactive)
same,GI50,RXF 393,2.12 µM (inactive)
same,GI50,CCRF-CEM,2.91 µM (inactive)
same,GI50,DLD-1,9.42 µM (inactive)
same,GI50,M14,4.89 µM (inactive)
same,GI50,A498,11.7 µM (inactive)
same,GI50,HCT-15,2.02 µM
same,GI50,SF-268,12.9 µM (inactive)
